Reference: patent US6555333B1, “Broad spectrum fastidious organism culture medium” (priority 2002, dated 2003)
Values belong to the compound of their own block, whether it stands above or below them.

How the values were obtained:
Haemophilus influenzae [1] = assay: MIC testing (Etest strip) on the culture medium of Example 1; assay type: cell-based; settings: for Observed MIC Breakpoints I: I = intermediate; for Observed MIC Breakpoints R: R = resistant; for Observed MIC Breakpoints S: S = susceptible
From the text: (§1) The culture medium of the invention was used in both Minimum Inhibitory Concentration (MIC) testing and Bauer-Kirby Disk Susceptibility testing for the pathogenic bacteria noted in the table below with the antimicrobial agents noted therein using the protocol and standards set forth in NCCLS Bulletin No. M2-A7 and in the Supplemental Tables appendix thereto, the disclosures of which are incorporated herein by reference.
(§2) The general procedure was as follows: pathogenic bacteria specimens were obtained from American Type Culture Collection control lots and 10 isolates were obtained from all species except Campylobacter, from which 6 isolates were obtained. Petri dishes 150 mm in diameter were autoclaved and filled with the culture medium of Example 1 and brought to room temperature. Each plate was then swab-inoculated with a suspension of one of the pathogenic bacteria equivalent to a 0.5 McFarland Standard, and then the antimicrobial-impregnated disk or antimicrobial-impregnated strip for IC measurement (Etest strip from Biodisk AB, of Solna, Sweden) were pressed into the surface of the culture medium. The plates were incubated at 35° C. for 24 hours in atmospheres containing 5-7% CO2 and the disk diffusion zones were measured, with the exception that plates inoculated with the Campylobacter species were placed into microaerophilic chambers from Mitsubishi Gas & Chemical Co. of Japan and incubated at 35° C. for 48 hours. The tests were conducted in duplicate for each pathogenic bacteria/antimicrobial agent combination on three batches of the culture medium of Example 1, for a total of six tests for each combination. Geometric mean MIC values and arithmetic mean values of zone diameters from the Disk Diffusion tests were calculated from the data, and are reported in the table below.

Haemophilus influenzae [2] = assay: Bauer-Kirby Disk Susceptibility testing on the culture medium of Example 1; assay type: cell-based; settings: for Observed Disk Diff. Breakpoints I: I = intermediate; for Observed Disk Diff. Breakpoints R: R = resistant; for Observed Disk Diff. Breakpoints S: S = susceptible
From the text: as §1, §2

Haemophilus influenzae [3] = settings: different known culture media; cited from earlier work
S. pneumoniae [4] = assay: MIC testing (Etest strip) on the culture medium of Example 1; assay type: cell-based; settings: for Observed MIC Breakpoints R: R = resistant; for Observed MIC Breakpoints S: S = susceptible
From the text: as §1, §2

Viridans streptococci [5] = assay: as above; assay type: cell-based; settings: R = resistant
From the text: as §1, §2

S. pneumoniae [6] = assay: Bauer-Kirby Disk Susceptibility testing on the culture medium of Example 1; assay type: cell-based; settings: for Observed Disk Diff. Breakpoints R: R = resistant; for Observed Disk Diff. Breakpoints S: S = susceptible
From the text: as §1, §2

Viridans streptococci [7] = assay: as above; assay type: cell-based
From the text: as §1, §2

S. pneumoniae [8] = settings: meningitis, different known culture media; cited from earlier work
Viridans streptococci [9] = settings: different known culture media; cited from earlier work

Observed MIC Breakpoints I (Haemophilus influenzae [1]): 8 µg/mL
Observed MIC Breakpoints R (Haemophilus influenzae [1]): ≧16 μg/mL
Observed MIC Breakpoints S (Haemophilus influenzae [1]): ≦4 μg/mL
SMILES: CC1(C)S[C@@H]2[C@H](NC(=O)[C@H](N)c3ccccc3)C(=O)N2[C@H]1C(=O)O [Ampicillin]
Observed Disk Diff. Breakpoints I (Haemophilus influenzae [2]): 13-16 mm
Observed Disk Diff. Breakpoints R (Haemophilus influenzae [2]): ≦12 mm
Observed Disk Diff. Breakpoints S (Haemophilus influenzae [2]): ≧17 mm
Reported MIC Breakpoints (Haemophilus influenzae [3]): (1-4) μg/mL

Observed MIC Breakpoints R (S. pneumoniae [4]; Lower Respiratory Tract): ≧8 μg/mL
Observed MIC Breakpoints S (S. pneumoniae [4]; Lower Respiratory Tract): ≦4 μg/mL
Observed MIC Breakpoints I (S. pneumoniae [4]; meningitis, I = intermediate): 1 µg/mL
Observed MIC Breakpoints R (S. pneumoniae [4]; meningitis): ≧2 μg/mL
Observed MIC Breakpoints S (S. pneumoniae [4]; meningitis): ≦0.5 μg/mL
Observed MIC Breakpoints R (Viridans streptococci [5]): ≧8 μg/mL
SMILES: CO/N=C(\C(=O)N[C@@H]1C(=O)N2C(C(=O)O)=C(COC(C)=O)CS[C@H]12)c1csc(N)n1 [Cefotaxime]
Observed Disk Diff. Breakpoints R (S. pneumoniae [6]; Lower Respiratory Tract): ≦23 mm
Observed Disk Diff. Breakpoints S (S. pneumoniae [6]; Lower Respiratory Tract): ≧24 mm
Observed Disk Diff. Breakpoints I (S. pneumoniae [6]; meningitis, I = intermediate): 26-27 mm
Observed Disk Diff. Breakpoints R (S. pneumoniae [6]; meningitis): ≦25 mm
Observed Disk Diff. Breakpoints S (S. pneumoniae [6]; meningitis): ≧28 mm
Observed Disk Diff. Breakpoints R (Viridans streptococci [7]; R = resistant): ≦23 mm
Observed Disk Diff. Breakpoints S (Viridans streptococci [7]; S = susceptible): ≧24 mm
Reported MIC Breakpoints (S. pneumoniae [8]): (0.5-2) μg/mL
Reported MIC Breakpoints (Viridans streptococci [9]): (0.5-2) μg/mL

SMILES: O=C(N[C@H](CO)[C@H](O)c1ccc([N+](=O)[O-])cc1)C(Cl)Cl [Chloramphenicol]
Observed MIC Breakpoints I (Haemophilus influenzae [1]): 4 µg/mL
Observed MIC Breakpoints R (Haemophilus influenzae [1]): ≧8 μg/mL
Observed MIC Breakpoints S (Haemophilus influenzae [1]): ≦2 μg/mL
Observed Disk Diff. Breakpoints I (Haemophilus influenzae [2]): 20-24 mm
Observed Disk Diff. Breakpoints R (Haemophilus influenzae [2]): ≦19 mm
Observed Disk Diff. Breakpoints S (Haemophilus influenzae [2]): ≧25 mm
Reported MIC Breakpoints (Haemophilus influenzae [3]): (2-8) μg/mL
